These results are taken from patent EP4660182A1, “NAV1.7- AND/OR NAV1.8-INHIBITING ARYL PYRIDINE COMPOUNDS, PROCESSES FOR THE PREPARATION THEREOF, COMPOSITIONS, USES, METHODS FOR TREATMENT USING SAME, AND KITS” (Eurofarma Laboratórios S.A., priority 2023, dated 2024).

Assay [1] deals with T1, human sodium channels Nav 1.8 (Homo sapiens, UniProt Q9Y5Y9).
T1 construct: expressed in transfected cells
The assay can be described thus: Automated whole-cell voltage-clamp (ScreenPatch 384P) sodium current block, Nav 1.8. The class given is cell-based. Particulars: CHO cells stably expressing human Nav 1.8; inactivation step -40 mV 8 s, test step 10 mV (TP1A); eight concentrations; exposure at least five minutes; room temperature; read-out: Nav1.8 IC50. The method, boiled down:
(§1)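 Stable CHO lines, whole-cell automated patch clamp at room temperature, ≥5 min exposure, eight concentrations. From -100 mV hold, 8 s at -40 mV, 20 ms at -100 mV, then test pulse to 10 mV (Nav 1.8) or 0 mV (Nav 1.7) at 0.05 Hz; peak-current % block fitted for IC50, averaged over repeats.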

The target in assay [2] is T2, human sodium channels Nav 1.7 (Homo sapiens, UniProt Q15858).
T2 construct: expressed in transfected cells
As to the kind of experiment: Automated whole-cell voltage-clamp (ScreenPatch 384P) sodium current block, Nav 1.7. The format is cell-based. The note with it: CHO cells stably expressing human Nav 1.7; inactivation step -40 mV 8 s, test step 0 mV (TP1A); eight concentrations; exposure at least five minutes; room temperature; read-out: Nav1.7 IC50. In outline: as §1

T1 sequence (Q9Y5Y9 whole entry): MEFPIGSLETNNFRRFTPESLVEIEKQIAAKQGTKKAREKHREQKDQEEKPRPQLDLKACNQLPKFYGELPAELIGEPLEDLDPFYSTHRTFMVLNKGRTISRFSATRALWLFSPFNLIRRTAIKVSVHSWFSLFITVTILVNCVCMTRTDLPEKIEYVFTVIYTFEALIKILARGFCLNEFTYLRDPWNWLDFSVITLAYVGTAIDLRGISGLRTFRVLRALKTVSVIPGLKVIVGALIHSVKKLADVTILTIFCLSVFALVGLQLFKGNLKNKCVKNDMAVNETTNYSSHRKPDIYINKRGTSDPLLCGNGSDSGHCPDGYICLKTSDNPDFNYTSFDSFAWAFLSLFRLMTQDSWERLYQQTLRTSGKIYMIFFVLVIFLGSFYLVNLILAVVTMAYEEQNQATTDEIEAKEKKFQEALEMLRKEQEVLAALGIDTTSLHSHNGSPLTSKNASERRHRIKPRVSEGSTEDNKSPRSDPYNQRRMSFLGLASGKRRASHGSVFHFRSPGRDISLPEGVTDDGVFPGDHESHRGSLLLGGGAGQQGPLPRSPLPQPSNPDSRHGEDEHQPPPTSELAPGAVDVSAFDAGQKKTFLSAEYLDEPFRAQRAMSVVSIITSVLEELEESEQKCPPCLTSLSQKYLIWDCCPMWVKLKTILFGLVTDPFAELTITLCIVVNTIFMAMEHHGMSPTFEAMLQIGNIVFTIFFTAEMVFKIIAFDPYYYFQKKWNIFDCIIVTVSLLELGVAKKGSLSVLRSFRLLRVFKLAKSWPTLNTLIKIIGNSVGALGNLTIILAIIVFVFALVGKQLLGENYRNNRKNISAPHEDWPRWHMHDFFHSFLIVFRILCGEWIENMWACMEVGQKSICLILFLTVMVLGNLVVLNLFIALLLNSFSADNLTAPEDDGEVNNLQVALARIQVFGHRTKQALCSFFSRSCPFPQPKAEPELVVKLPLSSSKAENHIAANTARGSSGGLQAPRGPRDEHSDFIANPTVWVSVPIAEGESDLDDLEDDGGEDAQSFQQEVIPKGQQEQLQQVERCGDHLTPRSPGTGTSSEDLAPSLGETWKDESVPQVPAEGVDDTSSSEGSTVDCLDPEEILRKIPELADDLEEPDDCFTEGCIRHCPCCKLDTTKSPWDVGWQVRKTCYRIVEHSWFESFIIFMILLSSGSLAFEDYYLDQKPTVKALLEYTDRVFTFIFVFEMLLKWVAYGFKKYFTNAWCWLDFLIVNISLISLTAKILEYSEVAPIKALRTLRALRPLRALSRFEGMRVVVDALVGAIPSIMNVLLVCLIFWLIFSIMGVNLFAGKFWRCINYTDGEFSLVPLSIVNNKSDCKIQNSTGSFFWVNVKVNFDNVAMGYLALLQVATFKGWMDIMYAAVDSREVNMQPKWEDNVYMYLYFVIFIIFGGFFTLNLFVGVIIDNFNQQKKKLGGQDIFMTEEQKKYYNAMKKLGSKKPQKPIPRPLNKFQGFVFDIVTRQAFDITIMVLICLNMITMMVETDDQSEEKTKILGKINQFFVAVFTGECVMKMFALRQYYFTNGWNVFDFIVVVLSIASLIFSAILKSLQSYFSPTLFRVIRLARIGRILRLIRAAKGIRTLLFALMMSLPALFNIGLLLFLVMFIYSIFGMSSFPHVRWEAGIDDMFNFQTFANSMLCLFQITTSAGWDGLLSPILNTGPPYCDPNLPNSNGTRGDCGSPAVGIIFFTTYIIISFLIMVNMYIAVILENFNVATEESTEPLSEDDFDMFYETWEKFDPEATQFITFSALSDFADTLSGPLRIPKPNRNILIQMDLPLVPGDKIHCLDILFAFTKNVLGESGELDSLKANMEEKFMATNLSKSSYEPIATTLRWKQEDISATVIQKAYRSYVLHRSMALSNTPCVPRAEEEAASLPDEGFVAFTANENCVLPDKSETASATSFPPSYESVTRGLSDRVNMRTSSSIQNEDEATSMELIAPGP
T2 sequence (Q15858 whole entry): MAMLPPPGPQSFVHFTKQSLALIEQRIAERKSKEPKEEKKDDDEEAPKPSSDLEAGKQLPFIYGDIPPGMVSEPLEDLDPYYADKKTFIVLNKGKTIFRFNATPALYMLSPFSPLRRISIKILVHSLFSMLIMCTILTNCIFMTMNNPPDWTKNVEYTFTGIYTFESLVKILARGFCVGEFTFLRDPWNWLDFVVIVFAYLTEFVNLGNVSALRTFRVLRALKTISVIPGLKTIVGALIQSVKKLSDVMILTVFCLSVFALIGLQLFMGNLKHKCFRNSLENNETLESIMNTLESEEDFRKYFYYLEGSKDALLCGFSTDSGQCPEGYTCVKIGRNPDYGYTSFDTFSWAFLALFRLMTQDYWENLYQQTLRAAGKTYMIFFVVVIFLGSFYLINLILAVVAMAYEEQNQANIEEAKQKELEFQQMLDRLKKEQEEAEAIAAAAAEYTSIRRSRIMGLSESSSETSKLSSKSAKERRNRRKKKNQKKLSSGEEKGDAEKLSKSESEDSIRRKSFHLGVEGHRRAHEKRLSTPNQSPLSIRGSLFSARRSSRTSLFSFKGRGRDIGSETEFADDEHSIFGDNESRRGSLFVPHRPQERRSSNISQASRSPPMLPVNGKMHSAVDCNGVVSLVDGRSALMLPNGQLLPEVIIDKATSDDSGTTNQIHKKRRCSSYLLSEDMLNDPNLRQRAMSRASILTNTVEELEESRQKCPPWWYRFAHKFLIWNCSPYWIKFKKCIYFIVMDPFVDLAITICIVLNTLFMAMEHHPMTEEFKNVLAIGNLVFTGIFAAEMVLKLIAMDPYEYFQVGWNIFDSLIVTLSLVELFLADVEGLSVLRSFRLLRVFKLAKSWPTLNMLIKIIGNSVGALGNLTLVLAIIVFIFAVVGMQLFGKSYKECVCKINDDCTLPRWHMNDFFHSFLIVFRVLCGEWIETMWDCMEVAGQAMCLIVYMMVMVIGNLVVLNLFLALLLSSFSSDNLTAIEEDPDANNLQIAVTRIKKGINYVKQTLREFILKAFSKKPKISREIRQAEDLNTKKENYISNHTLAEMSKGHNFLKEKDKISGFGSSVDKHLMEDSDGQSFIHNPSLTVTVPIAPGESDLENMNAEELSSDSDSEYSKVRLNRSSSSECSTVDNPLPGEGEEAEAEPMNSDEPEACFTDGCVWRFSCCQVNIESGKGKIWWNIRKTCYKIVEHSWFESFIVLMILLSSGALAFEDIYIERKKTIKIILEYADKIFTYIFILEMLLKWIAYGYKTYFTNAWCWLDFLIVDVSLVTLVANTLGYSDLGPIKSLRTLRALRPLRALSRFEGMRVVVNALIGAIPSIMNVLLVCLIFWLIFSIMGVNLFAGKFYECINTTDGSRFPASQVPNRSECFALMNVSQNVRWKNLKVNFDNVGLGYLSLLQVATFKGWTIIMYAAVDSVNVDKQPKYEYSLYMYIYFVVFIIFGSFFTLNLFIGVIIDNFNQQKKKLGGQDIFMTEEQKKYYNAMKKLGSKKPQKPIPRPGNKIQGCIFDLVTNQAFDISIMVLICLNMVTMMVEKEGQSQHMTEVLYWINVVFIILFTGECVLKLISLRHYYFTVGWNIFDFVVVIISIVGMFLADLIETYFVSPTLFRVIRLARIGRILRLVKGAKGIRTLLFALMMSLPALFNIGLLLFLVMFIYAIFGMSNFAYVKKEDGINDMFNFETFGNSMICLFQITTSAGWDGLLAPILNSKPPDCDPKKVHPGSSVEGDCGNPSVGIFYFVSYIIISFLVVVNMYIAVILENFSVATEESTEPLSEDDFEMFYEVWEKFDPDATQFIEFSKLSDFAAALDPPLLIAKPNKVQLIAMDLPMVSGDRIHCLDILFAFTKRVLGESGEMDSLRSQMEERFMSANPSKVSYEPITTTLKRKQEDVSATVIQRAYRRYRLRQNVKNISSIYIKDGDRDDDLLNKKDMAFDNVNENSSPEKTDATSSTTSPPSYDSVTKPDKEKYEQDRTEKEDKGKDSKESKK

As usually defined, the IC50 is the concentration that gives 50% inhibition. Turning to `CCOc1ccc(-c2cnc(N)c(C(=O)N/N=C/c3cc(OC)ccc3F)n2)cn1` [Compound 64, (E)-3-amino-6-(6-ethoxypyridine-3-yl)-N'-(2-fluoro-5-methoxybenzylidene) pyrazine-2-carbohydrazide], the IC50 in assay [1] is 500 to 1000 nM; in assay [2], above 1000 nM.
Regarding `COc1ccc(F)c(/C=N/NC(=O)c2cncc(-c3ccc(OCCN)nc3)n2)c1` [Compound 135, (E)-6-(6-(2-aminoethoxy)pyridine-3-yl)-N'-(2-fluoro-5-methoxybenzylidene) pyrazine-2-carbohydrazide], the IC50 in assay [1] and in assay [2] was above 1000 nM throughout.
Consider `COc1ccc(F)c(/C=N/NC(=O)c2cncc(-c3ccc(OCCC4CN(C)C4)nc3)n2)c1` [Compound 147, (E)-N'-(2-fluoro-5-methoxybenzylidene)-6-(6-(2-(1-methylazetidine-3-yl)ethoxy)pyridine-3-yl)pyrazine-2-carbohydrazide], for which the IC50 in assay [1] and in assay [2] was above 1000 nM throughout.
On to `CC(C)Oc1ccc(F)c(/C=N/NC(=O)c2cncc(-c3ccc(OC(F)(F)F)nc3)n2)c1` [Compound 92, (E)-N'-(2-fluoro-5-isopropoxybenzylidene)-6-(6-(trifluoromethoxy)pyridine-3-yl)pyrazine-2-carbohydrazide], for which the IC50 in assay [1] and in assay [2] was below 500 nM each time.
With `CCOc1ccc(F)c(/C=N/NC(=O)c2cncc(-c3ccc(OC(F)(F)F)nc3)n2)c1` [Compound 91, (E)-N'-(5-ethoxy-2-fluorobenzylidene)-6-(6-(trifluoromethoxy)pyridine-3-yl)pyrazine-2-carbohydrazide], the 50% inhibitory concentration (IC50) in assay [1] is below 500 nM; in assay [2], above 1000 nM.
As to `[2H]C([2H])(C)Oc1ccc(-c2cncc(C(=O)N/N=C/c3cc(OC)cnc3F)n2)cn1` [Compound 169, (E)-6-(6-(ethoxy-1,1-d2)pyridine-3-yl)-N'-((2-fluoro-5-methoxypyridine-3-yl)methylene)pyrazine-2-carbohydrazide], the IC50 in assay [1] was below 500 nM; in assay [2], above 1000 nM.
The matching figures for `CCOc1ccc(-c2cncc(C(=O)N/N=C/c3nc(OC)ccc3F)n2)cn1` [Compound 15, (E)-6-(6-ethoxypyridine-3-yl)-N'-((3-fluoro-6-methoxypyridine-2-yl)methylene)pyrazine-2-carbohydrazide]: below 500 nM and above 1000 nM.
The matching figures for `CCOc1ccc(-c2nc(C(=O)N/N=C/c3cc(OC)cnc3F)cnc2O)cn1` [Compound 67, (E)-6-(6-ethoxypyridine-3-yl)-N'-((2-fluoro-5-methoxypyridine-3-yl)methylene)-5-hydroxypyrazine-2-carbohydrazide]: above 1000 nM and above 1000 nM.
Taken in the same sequence, the figures for `CC(C)Oc1ccc(F)c(/C=N/NC(=O)c2cncc(-c3ccc(OC4CC4)nc3)n2)c1` [Compound 79, (E)-6-(6-cyclopropoxypyridine-3-yl)-N'-(2-fluoro-5-isopropoxybenzylidene) pyrazine-2-carbohydrazide] were below 500 nM and below 500 nM.
Consider `COc1cnc(O)c(/C=N/NC(=O)c2cncc(-c3ccc(OC(F)F)nc3)n2)c1` [Compound 117, (E)-6-(6-(difluoromethoxy)pyridine-3-yl)-N'-((2-hydroxy-5-methoxypyridine-3-yl)methylene)pyrazine-2-carbohydrazide], for which the IC50 in assay [1] and in assay [2] was above 1000 nM throughout.
For `CCOc1cc(OC)c(-c2cncc(C(=O)N/N=C/c3cc(OC)cnc3F)n2)cn1` [Compound 153, (E)-6-(6-ethoxy-4-methoxypyridine-3-yl)-N'-((2-fluoro-5-methoxypyridine-3-yl)methylene)pyrazine-2-carbohydrazide], the IC50 in assay [1] and in assay [2] was above 1000 nM in each case.
On to `CCOc1ccc(-c2cncc(C(=O)N/N=C/c3cc(OC(C)C)ccc3F)n2)cn1` [Compound 5, (E)-6-(6-ethoxypyridine-3-yl)-N'-(2-fluoro-5-isopropoxybenzylidene)pyrazine-2-carbohydrazide], for which the IC50 in assay [1] and in assay [2] was below 500 nM in each case.
In the case of `CCOc1ccc(-c2cncc(C(=O)N/N=C/c3cccn3C)n2)cn1` [Compound 50, (E)-6-(6-ethoxypyridine-3-yl)-N'-((1-methyl-1H-pyrrole-2-yl)methylene)pyrazine-2-carbohydrazide], the half-inhibitory concentration (IC50) in assay [1] is below 500 nM; in assay [2], above 1000 nM.
The matching figures for `COc1ccc(F)c(/C=N/NC(=O)c2cncc(-c3ccc(OC(F)(F)F)nc3)n2)c1` [Compound 83, (E)-N'-(2-fluoro-5-methoxybenzylidene)-6-(6-(trifluoromethoxy)pyridine-3-yl)pyrazine-2-carbohydrazide]: below 500 nM and above 1000 nM.
Taken in the same sequence, the figures for `CCOc1ccc(-c2cncc(C(=O)N/N=C/c3cc(C(C)O)cnc3F)n2)cn1` (centres unmarked) [Compound 25, (E)-6-(6-ethoxypyridine-3-yl)-N'-((2-fluoro-5-(1-hydroxyethyl)pyridine-3-yl)methylene) pyrazine-2-carbohydrazide] were 500 to 1000 nM and above 1000 nM.
Taken in the same sequence, the figures for `CCOc1ccc(-c2cncc(C(=O)N/N=C/c3cc(OC)cc(O)c3F)n2)cn1` [Compound 44, (E)-6-(6-ethoxypyridine-3-yl)-N'-(2-fluoro-3-hydroxy-5-methoxybenzylidene) pyrazine-2-carbohydrazide] were above 1000 nM and above 1000 nM.
With `CCOc1ccc(-c2cncc(C(=O)N/N=C/c3nccn3CC)n2)cn1` [Compound 60, (E)-6-(6-ethoxypyridine-3-yl)-N'-((1-ethyl-1H-imidazole-2-yl)methylene)pyrazine-2-carbohydrazide], the figures for the IC50 in assay [1] and in assay [2] were 500 to 1000 nM and above 1000 nM, respectively.
The matching figures for `COc1cnc(F)c(/C=N/N(C)C(=O)c2cncc(-c3ccc(OC(F)F)nc3)n2)c1` [Compound 176, (E)-6-(6-(difluoromethoxy)pyridine-3-yl)-N'-((2-fluoro-5-methoxypyridine-3-yl)methylene)-N-methylpyrazine-2-carbohydrazide]: above 1000 nM and above 1000 nM.
The matching figures for `CCOc1ccc(-c2cncc(C(=O)N/N=C/c3cc(OC)cnc3F)n2)cn1` [Compound 7, (E)-6-(6-ethoxypyridine-3-yl)-N'-((2-fluoro-5-methoxypyridine-3-yl)methylene)pyrazine-2-carbohydrazide]: below 500 nM and above 1000 nM.
Taken in the same sequence, the figures for `CCOc1ccc(-c2cncc(C(=O)N/N=C/c3ccnn3C)n2)cn1` [Compound 51, (E)-6-(6-ethoxypyridine-3-yl)-N'-((1-methyl-1H-pyrazole-5-yl)methylene)pyrazine-2-carbohydrazide] were above 1000 nM and above 1000 nM.
With `COc1cnc(F)c(/C=N/NC(=O)c2cncc(-c3cnc(OC(F)F)cc3C)n2)c1` [Compound 160, (E)-6-(6-(difluoromethoxy)-4-methylpyridine-3-yl)-N'-((2-fluoro-5-methoxypyridine-3-yl)methylene)pyrazine-2-carbohydrazide], the IC50 in assay [1] and in assay [2] was below 500 nM in each case.
Turning to `CCOc1ccc(-c2nc(C(=O)N/N=C/c3cc(OC)cnc3F)cn(C)c2=O)cn1` [Compound 75, (E)-6-(6-ethoxypyridine-3-yl)-N'-((2-fluoro-5-methoxypyridine-3-yl)methylene)-4-methyl-5-oxo-4,5-dihydropyrazine-2-carbohydrazide], the IC50 in assay [1] and in assay [2] was above 1000 nM throughout.
Take `COc1ccc(F)c(/C=N/NC(=O)c2cncc(-c3ccc(OC4CC4)nc3)n2)c1` [Compound 77, (E)-6-(6-cyclopropoxypyridine-3-yl)-N'-(2-fluoro-5-methoxybenzylidene)pyrazine-2-carbohydrazide]: the IC50 in assay [1] and in assay [2] was below 500 nM each time.
As to `CCOc1ccc(-c2cnc(O)c(C(=O)N/N=C/c3cc(OC)cnc3F)n2)cn1` [Compound 65, (E)-6-(6-ethoxypyridine-3-yl)-N'-((2-fluoro-5-methoxypyridine-3-yl)methylene)-3-hydroxypyrazine-2-carbohydrazide], the half-maximal inhibitory concentration (IC50) in assay [1] and in assay [2] was above 1000 nM in each case.
For `COc1ccc(F)c(/C=N/NC(=O)c2cncc(-c3ccc(OCC(C)O)nc3)n2)c1` (centres unmarked) [Compound 138, (E)-N'-(2-fluoro-5-methoxybenzylidene)-6-(6-(2-hydroxypropoxy)pyridine-3-yl) pyrazine-2-carbohydrazide], the IC50 in assay [1] and in assay [2] was above 1000 nM in each case.
On to `CCOc1ccc(-c2cncc(C(=O)N(C)/N=C/c3cc(OC)cnc3F)n2)cn1` [Compound 175, (E)-6-(6-ethoxypyridine-3-yl)-N'-((2-fluoro-5-methoxypyridine-3-yl)methylene)-N-methylpyrazine-2-carbohydrazide], for which the IC50 in assay [1] and in assay [2] was above 1000 nM in each case.
On to `CCOc1ccc(-c2cncc(C(=O)N/N=C/c3cc(S(N)(=O)=O)ccc3F)n2)cn1` [Compound 14, (E)-3-((2-(6-(6-ethoxypyridine-3-yl)pyrazine-2-carbonyl)hydrazinylidene)methyl)-4-fluorobenzenesulfonamide], for which the IC50 in assay [1] and in assay [2] was above 1000 nM each time.
With `CCOc1ccc(-c2cncc(C(=O)N/N=C/c3cc(N4CC(O)C4)ccc3F)n2)cn1` [Compound 37, (E)-6-(6-ethoxypyridine-3-yl)-N'-(2-fluoro-5-(3-hydroxyazetidine-1-yl)benzylidene) pyrazine-2-carbohydrazide], the IC50 in assay [1] and in assay [2] was above 1000 nM each time.
